# Columns and labels:
# PI3K γ = molecular target: T1, PI3K γ (Homo sapiens, UniProt P48736); assay: PI3K gamma inhibition (Thermo Fisher Scientific); type: biochemical; conditions: 10-point curve; read-out: Target IC50 PI3K γ
# T1 construct: purchased Thermo Fisher Scientific-Biosciences Life Sciences Solutions, Madison, Wis; (contract assay)
# Procedure: (§1) The BTK, PI3K, and/or bromodomain inhibitory activity of a compound of the invention can be determined by methods known to the skilled artisan, or by procuring relevant analysis by a commercial vendor offering such services. […] In vivo, PI3K inhibition can be determined from target tissue biopsies by standard tissue processing in which cells are disrupted and Western Blot analysis is performed to determine the presence or absence of pAKT (substrate of PI3K) relative to a control sample. PI3K inhibition assays and BTK inhibition assays are known in the art and can be procured commercially through vendors such as Reaction Biology (Malvern, Pa.). The activity of a compound of the invention as an inhibitor of a bromodomain-containing protein, such as a BET protein, including BRD2, BRD3, BRD4, and/or BRDT, or an isoform or mutant thereof, may be determined in vitro, in vivo, or in a cell line. In vitro assays include assays that determine inhibition of bromodomain-containing proteins. Alternatively, inhibitor binding may be determined by running a competition experiment where a provided compound is incubated with a bromodomain-containing protein, such as a BET protein bound to known ligands, labeled or unlabeled. In vitro bromodomain inhibition assays can be performed using Alpha Screen Technology (Perkin Elmer Life and Analytical Sciences, Shelton, Conn.). In vivo bromodomain inhibition can be determined indirectly by evaluating the amount of a protein whose gene transcription is influenced or controlled by the bromodomain protein, for example, MYCN protein transcription is controlled by BRD4 (J. E. Delmore et al., Cell 2011, 146, 904-917; A. Puissant, Cancer Discov. 2013, 3, 308-323).
# (§2) Compounds of the invention were analyzed for their ability to inhibit target proteins in vitro. PI3K alpha, gamma, and delta inhibition activity was determined by Thermo Fisher Scientific-Biosciences Life Sciences Solutions, Madison, Wis. The bromodomain protein inhibition (binding domain 1 and 2 of BRD4) was determined at Reaction Biology Corp., Malvern, Pa. BTK inhibition was performed by Reaction Biology Corp., Malvern, Pa.
# (§3) Additional information regarding the testing procedures is available at each company's website on the internet. The IC50 data was calculated from a 10-point curve by the vendor and is compiled in ranges in the Table 6 below.
# BTK (WT) = molecular target: T2, BTK (WT) (Homo sapiens, UniProt Q06187); assay: native BTK inhibition (Reaction Biology Corp.); type: biochemical; conditions: 10-point curve; read-out: Target IC50 BTK (WT)
# T2 construct: purchased Reaction Biology Corp., Malvern, Pa; (contract assay)
# Procedure: as §2, §3
# PI3K δ = molecular target: T3, PI3K δ (Homo sapiens, UniProt O00329); assay: PI3K delta inhibition (Thermo Fisher Scientific); type: biochemical; conditions: 10-point curve; read-out: Target IC50 PI3K δ
# T3 construct: purchased Thermo Fisher Scientific-Biosciences Life Sciences Solutions, Madison, Wis; (contract assay)
# Procedure: as §1, §2, §3
# PI3K α = molecular target: T4, PI3K α (Homo sapiens, UniProt P42336); assay: PI3K alpha inhibition (Thermo Fisher Scientific); type: biochemical; conditions: 10-point curve; read-out: Target IC50 PI3K α
# T4 construct: purchased Thermo Fisher Scientific-Biosciences Life Sciences Solutions, Madison, Wis; (contract assay)
# Procedure: as §1, §2, §3
# [1] = molecular target: T5, BRD4-2 (binding domain 2 of BRD4) (Homo sapiens, UniProt O60885); assay: BRD4 binding domain 2 inhibition (Reaction Biology Corp.); conditions: 10-point curve; read-out: Target IC50 BRD4-2
# T5 construct: purchased Reaction Biology Corp., Malvern, Pa; (contract assay)
# Procedure: as §1, §2, §3
# [2] = molecular target: T6, BRD4-1 (binding domain 1 of BRD4) (Homo sapiens, UniProt O60885); assay: BRD4 binding domain 1 inhibition (Reaction Biology Corp.); conditions: 10-point curve; read-out: Target IC50 BRD4-1
# T6 construct: purchased Reaction Biology Corp., Malvern, Pa; (contract assay)
# Procedure: as §1, §2, §3
# BTK (C481S) = molecular target: T7, BTK (C481S) (Homo sapiens, UniProt Q06187, C481S); assay: BTK cysteine mutant C481S inhibition (Reaction Biology Corp.); type: biochemical; conditions: for IC50: 10-point curve, read-out: Target IC50 BTK (C481S); for Ratio C481S/WT: ratio of the BTK IC50 values, C481S over wild-type
# T7 construct: purchased Reaction Biology Corp., Malvern, Pa; (contract assay)
# Procedure: as §2, §3
# [3] = tested on: Human mantle cell lymphoma cell lines; assay: Cell viability, mantle cell lymphoma cell lines (overall conclusion); type: cell-based; conditions: in vitro, 48 hours
# Procedure: (§4) The results of this experiment are shown in FIGS. 1A-1C, and in Table 7 below. Human mantle cell lymphoma cell lines were grown in 96 well plates with 5000 cells per well in RPMI 1640 media supplemented with 10% fetal bovine serum. Cells were treated for 48 hours with a concentration range of each compound from 50 nM to 50 uM. Cell viability a measure of viable cell numbers was determined using a Celltiter-Glo^R reagent for each concentration in order to construct an IC50 curve for each compound in each cell line.
# Granta519 cells = assay: Cell viability (Celltiter-Glo), Granta519; type: cell-based; conditions: Homo sapiens, Granta-519, 48 hours
# Procedure: as §4
# Mino cells [4] = assay: Cell viability (Celltiter-Glo), Mino; type: cell-based; conditions: Homo sapiens, 48 hours
# Procedure: as §4
# JeKo-1 cells [5] = assay: Cell viability (Celltiter-Glo), JeKo-1; type: cell-based; conditions: Homo sapiens, 48 hours
# Procedure: as §4
# Mino cells [6] = assay: Percentage cells in apoptosis, Mino; type: cell-based, human; conditions: 24-hour
# Text: (§5) Additionally apoptosis data was obtained in both JeKo and Mino cells for compound 7.
# JeKo-1 cells [7] = assay: Percentage cells in apoptosis, JeKo-1; type: cell-based, human
# Text: as §5
# T1 sequence (P48736 whole entry): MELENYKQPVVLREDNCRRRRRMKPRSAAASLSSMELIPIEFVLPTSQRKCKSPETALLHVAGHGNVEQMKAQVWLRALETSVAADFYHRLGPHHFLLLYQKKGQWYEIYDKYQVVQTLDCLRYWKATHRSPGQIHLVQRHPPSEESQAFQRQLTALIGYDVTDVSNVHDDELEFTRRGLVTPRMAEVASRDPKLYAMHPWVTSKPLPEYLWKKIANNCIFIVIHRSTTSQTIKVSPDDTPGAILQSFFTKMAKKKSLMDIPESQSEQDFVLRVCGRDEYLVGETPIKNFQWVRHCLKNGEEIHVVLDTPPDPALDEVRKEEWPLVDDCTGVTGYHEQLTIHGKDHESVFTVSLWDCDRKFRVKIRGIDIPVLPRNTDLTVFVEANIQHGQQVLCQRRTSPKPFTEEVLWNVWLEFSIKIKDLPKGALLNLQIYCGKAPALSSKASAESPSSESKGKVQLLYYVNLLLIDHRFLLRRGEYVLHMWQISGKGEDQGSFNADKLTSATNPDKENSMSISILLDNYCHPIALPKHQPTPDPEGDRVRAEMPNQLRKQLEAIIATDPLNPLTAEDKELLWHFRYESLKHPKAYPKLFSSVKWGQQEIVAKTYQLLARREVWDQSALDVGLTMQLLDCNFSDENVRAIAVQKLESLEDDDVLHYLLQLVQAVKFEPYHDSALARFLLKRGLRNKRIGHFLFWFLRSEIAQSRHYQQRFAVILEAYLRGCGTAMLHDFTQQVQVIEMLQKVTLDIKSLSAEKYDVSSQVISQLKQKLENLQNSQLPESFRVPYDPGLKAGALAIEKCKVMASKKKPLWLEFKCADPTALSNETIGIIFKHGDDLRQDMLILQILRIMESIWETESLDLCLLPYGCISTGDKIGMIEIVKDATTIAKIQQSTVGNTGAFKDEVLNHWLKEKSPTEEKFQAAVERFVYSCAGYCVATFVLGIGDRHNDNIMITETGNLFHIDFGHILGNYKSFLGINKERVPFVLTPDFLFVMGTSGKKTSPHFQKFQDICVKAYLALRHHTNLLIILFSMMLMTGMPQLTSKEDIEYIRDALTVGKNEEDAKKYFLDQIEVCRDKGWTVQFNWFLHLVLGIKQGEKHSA
# T4 sequence (P42336 whole entry): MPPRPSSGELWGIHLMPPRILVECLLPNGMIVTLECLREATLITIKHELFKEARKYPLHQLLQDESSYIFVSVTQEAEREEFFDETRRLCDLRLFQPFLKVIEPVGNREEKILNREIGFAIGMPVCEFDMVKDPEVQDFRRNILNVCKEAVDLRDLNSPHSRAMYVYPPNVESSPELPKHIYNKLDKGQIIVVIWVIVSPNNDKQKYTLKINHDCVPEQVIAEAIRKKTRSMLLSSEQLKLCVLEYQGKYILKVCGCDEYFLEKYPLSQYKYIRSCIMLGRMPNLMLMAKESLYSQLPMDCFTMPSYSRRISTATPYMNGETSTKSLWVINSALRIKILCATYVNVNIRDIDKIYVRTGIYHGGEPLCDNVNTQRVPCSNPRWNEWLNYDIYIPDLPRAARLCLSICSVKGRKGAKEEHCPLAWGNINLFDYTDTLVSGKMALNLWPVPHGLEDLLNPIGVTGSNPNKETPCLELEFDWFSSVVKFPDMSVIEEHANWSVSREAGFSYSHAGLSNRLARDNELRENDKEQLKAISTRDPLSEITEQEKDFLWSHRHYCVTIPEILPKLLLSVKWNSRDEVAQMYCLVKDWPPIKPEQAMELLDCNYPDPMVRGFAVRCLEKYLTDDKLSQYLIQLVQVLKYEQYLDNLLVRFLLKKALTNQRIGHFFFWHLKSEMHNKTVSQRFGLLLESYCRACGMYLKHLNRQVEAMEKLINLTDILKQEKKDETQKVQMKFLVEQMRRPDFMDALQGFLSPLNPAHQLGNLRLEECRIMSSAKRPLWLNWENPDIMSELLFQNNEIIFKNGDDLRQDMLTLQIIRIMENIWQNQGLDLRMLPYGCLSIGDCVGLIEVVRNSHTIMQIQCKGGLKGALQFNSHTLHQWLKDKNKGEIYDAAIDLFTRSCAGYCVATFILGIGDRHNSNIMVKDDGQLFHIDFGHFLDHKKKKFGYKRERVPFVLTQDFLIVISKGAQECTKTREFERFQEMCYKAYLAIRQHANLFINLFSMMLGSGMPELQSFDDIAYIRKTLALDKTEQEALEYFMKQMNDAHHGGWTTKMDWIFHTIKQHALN
# T4 sequence (P27986 whole entry partner): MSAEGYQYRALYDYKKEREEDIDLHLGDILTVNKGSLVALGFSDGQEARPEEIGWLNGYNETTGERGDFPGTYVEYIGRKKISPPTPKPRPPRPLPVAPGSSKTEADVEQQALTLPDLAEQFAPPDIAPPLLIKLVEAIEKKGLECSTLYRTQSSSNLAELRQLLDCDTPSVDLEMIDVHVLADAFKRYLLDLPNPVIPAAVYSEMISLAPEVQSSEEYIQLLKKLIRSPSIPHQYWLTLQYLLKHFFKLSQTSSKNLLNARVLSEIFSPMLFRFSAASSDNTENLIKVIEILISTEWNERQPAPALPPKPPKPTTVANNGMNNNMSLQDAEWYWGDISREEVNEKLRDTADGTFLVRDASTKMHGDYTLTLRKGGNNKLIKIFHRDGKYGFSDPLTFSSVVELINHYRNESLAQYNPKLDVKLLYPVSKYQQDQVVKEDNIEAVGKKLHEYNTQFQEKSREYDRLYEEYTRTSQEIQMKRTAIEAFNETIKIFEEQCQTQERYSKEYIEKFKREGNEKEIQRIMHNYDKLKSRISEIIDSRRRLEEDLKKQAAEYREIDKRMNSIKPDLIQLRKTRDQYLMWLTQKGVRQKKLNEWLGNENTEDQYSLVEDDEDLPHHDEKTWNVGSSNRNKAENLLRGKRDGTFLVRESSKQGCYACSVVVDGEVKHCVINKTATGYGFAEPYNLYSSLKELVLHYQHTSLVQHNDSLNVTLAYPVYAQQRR
# T3 sequence (O00329 whole entry): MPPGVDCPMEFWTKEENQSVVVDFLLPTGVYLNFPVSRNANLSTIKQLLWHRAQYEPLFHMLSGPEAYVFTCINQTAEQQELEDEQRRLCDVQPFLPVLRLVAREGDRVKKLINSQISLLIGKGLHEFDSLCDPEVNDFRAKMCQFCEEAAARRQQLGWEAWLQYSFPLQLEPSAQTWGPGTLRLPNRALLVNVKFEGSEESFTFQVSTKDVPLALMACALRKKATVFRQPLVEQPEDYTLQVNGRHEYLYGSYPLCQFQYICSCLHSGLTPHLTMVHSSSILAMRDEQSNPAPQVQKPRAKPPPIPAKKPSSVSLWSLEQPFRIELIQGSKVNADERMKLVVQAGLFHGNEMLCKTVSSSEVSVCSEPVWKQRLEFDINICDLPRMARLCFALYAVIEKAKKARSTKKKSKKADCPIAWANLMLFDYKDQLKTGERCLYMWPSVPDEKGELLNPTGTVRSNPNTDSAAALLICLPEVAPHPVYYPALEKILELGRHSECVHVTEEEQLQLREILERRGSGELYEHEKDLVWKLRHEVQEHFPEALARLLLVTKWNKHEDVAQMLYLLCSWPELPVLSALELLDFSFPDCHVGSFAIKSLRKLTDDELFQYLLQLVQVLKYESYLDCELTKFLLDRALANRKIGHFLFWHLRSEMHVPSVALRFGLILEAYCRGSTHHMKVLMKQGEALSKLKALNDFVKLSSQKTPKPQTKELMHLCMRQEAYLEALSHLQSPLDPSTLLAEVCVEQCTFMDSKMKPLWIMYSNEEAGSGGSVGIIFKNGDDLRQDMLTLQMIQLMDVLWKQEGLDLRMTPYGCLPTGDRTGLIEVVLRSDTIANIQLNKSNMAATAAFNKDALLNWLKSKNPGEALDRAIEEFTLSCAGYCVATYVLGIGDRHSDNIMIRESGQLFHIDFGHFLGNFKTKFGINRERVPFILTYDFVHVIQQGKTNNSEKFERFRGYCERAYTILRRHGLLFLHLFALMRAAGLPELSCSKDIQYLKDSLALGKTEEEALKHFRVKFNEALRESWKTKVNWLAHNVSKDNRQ
# T3 sequence (P27986 whole entry partner): as the sequence (P27986 whole entry partner) above
# T2 sequence (Q06187 whole entry): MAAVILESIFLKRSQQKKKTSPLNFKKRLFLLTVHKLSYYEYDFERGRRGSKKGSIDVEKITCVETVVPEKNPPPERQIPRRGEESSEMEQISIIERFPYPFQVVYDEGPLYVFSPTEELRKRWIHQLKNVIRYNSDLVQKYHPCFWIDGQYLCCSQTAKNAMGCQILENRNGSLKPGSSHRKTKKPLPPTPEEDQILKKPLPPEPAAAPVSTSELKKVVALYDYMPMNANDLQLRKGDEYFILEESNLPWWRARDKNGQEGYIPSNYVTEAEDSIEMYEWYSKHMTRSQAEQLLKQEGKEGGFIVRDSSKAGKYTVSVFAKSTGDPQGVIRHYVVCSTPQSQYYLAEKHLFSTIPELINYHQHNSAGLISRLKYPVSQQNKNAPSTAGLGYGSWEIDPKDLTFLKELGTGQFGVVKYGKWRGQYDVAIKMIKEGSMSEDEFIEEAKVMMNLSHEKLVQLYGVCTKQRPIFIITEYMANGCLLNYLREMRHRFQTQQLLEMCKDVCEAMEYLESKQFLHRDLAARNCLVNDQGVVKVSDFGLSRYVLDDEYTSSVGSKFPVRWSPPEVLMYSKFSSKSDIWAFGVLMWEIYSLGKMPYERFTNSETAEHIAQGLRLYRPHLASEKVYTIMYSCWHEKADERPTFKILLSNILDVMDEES
# T7 sequence (Q06187 whole entry C481S): as the sequence (Q06187 whole entry) above, with C481S counted along it
IC50 (PI3K γ),IC50 (BTK (WT)),IC50 (PI3K δ),IC50 (PI3K α),IC50 [1],IC50 [2],IC50 (BTK (C481S)),Ratio C481S/WT (BTK (C481S)),Structure (SMILES),also measured
< 1000 nM,< 1000 nM,< 1000 nM,< 1000 nM,1000 to 10000 nM,< 1000 nM,> 50000 nM,>60,"C=CC(=O)Nc1cc(OC)cc(-c2csc3c(=O)cc(N4CCOCC4)oc23)c1 [Compound 8, 1-[5-Methoxy-3-(5-morpholino-7-oxo-4-oxa-1-thia-3-indenyl)phenylamino]-2-propen-1-one]",–
1000 to 10000 nM,10000 to 30000 nM,< 1000 nM,< 1000 nM,< 1000 nM,1000 to 10000 nM,10000 to 30000 nM,1.3,"N#C/C(=C\C1CC1)C(=O)Nc1cccc(-c2csc3c(=O)cc(N4CCOCC4)oc23)c1 [Compound 11, (E)-3-Cyclopropyl-2-{[m-(5-morpholino-7-oxo-4-oxa-1-thia-3-indenyl)phenylamino]carbonyl}acrylonitrile]",–
< 1000 nM,< 1000 nM,< 1000 nM,< 1000 nM,< 1000 nM,< 1000 nM,< 1000 nM,1402,"C=CS(=O)(=O)N1CCOc2ccc(-c3csc4c(=O)cc(N5CCOCC5)oc34)cc21 [Compound 21, 5-Morpholino-3-[4-(vinylsulfonyl)-1-oxa-4-aza-3,4-dihydro-2H-naphth-6-yl]-4-oxa-1-thia-7-indenone]",–

# The next lines start with the compound.
Structure (SMILES),IC50 (PI3K γ),IC50 (BTK (WT)),IC50 (PI3K δ),IC50 (PI3K α),IC50 [1],IC50 [2],IC50 (BTK (C481S)),Ratio C481S/WT (BTK (C481S)),also measured
"O=c1cc(N2CCOCC2)oc2c(-c3ccc4c(c3)OCCO4)csc12 [Compound 0, reference compound]",< 1000 nM,10000 to 30000 nM,< 1000 nM,–,1000 to 10000 nM,< 1000 nM,10000 to 30000 nM,–,Potency in reducing mantle cell lymphoma viability as compared to Ibrutinib [3]: markedly more potent; IC50 (Granta519 cells): 1000 to 10000 nM; IC50 (Mino cells [4]): < 1000 nM; IC50 (JeKo-1 cells [5]): < 1000 nM
"C=CC(=O)Nc1cccc(-c2csc3c(=O)cc(N4CCNCC4)oc23)c1.O=C(O)C(F)(F)F [Compound 3, 1-{m-[7-Oxo-5-(1-piperazinyl)-4-oxa-1-thia-3-indenyl]phenylamino}-2-propen-1-one]",> 50000 nM,1000 to 10000 nM,> 50000 nM,> 50000 nM,1000 to 10000 nM,< 1000 nM,30000 to 50000 nM,24.5,–
CN[C@@H]1C[C@H]2O[C@@](C)([C@@H]1OC)n1c3ccccc3c3c4c(c5c6ccccc6n2c5c31)C(=O)NC4 [Staurosporine],–,–,–,–,–,–,–,–,"Percentage cells in apoptosis (Mino cells [6]; Early): ++++ (between 30% and 50%); Percentage cells in apoptosis (Mino cells [6]; Late): ++++ (between 30% and 50%); Percentage cells in apoptosis (Mino cells [6]; Total): +++++ (more than 50%); Percentage cells in apoptosis (JeKo-1 cells [7]; JeKo-1, 24-hour, Early): ++ (between 5% and 10%); Percentage cells in apoptosis (JeKo-1 cells [7]; JeKo-1, 24-hour, Late): + (less than 5%); Percentage cells in apoptosis (JeKo-1 cells [7]; JeKo-1, 24-hour, Total): +++ (between 10% and 30%); Percentage cells in apoptosis (JeKo-1 cells [7]; JeKo-1, 48-hour, Early): +++ (between 10% and 30%); Percentage cells in apoptosis (JeKo-1 cells [7]; JeKo-1, 48-hour, Late): +++ (between 10% and 30%); Percentage cells in apoptosis (JeKo-1 cells [7]; JeKo-1, 48-hour, Total): ++++ (between 30% and 50%)"
"C=CC(=O)N1CCOc2ccc(-c3csc4c(=O)cc(N5CCN(C)CC5)oc34)cc21 [Compound 6, 1-(7[5-(4-Methyl-1-piperazinyl)-7-oxo-4-oxa-1-thia-3-indenyl]-4-oxa-1-aza-2,3-dihydro-1H-naphth-1-yl]-2-propen-1-one]",> 50000 nM,< 1000 nM,1000 to 10000 nM,30000 to 50000 nM,10000 to 30000 nM,1000 to 10000 nM,1000 to 10000 nM,11.2,–

# — patent publication US20210300939A1, “Single Molecule Compounds Providing Multi-Target Inhibition of BTK and Other Proteins and Methods of Use Thereof” (SignalRx Pharmaceuticals, Inc., priority 2018, published 2021)
